Type in all cases: cell-based, human
Assay [1] has as its system HAP-1, HAP-1.KO.GPx1, and Siso. In words: alkaline Comet assay (summary). Further details: key: no impact (0); weak impact (+); strong impact (++). The note with it: summary grade. The text has this:
Next, the potential of the pentathiepins 1–6 to damage nuclear DNA was investigated in the cell lines HAP-1, HAP-1.KO.GPx1, and Siso, with different expression levels of GPx1 and CAT (see Figure 7), by Comet Assay (Figure 12) with representative images in the Supplementary Materials (Figure S48).
With this assay, the intensity of DNA damage can be assessed on the level of a single cell, in case of the alkaline version detecting both single and double strand breaks as well as alkali-labile sites. The method presented here is an adaptation of the protocol published by Olive and Banath and based on the distinct electrophoretic mobility of damaged and intact genomic DNA. The latter has a low mobility; does thus not migrate in the electric field; and remains in a nucleoid shape after lysis, referred to as the comet head. In contrast, when strand breaks are created, free charged ends emerge and increase the electrophoretic mobility, prompting DNA segments to drift away from the comet head, thereby forming the so-called comet tail. As descriptor of still intact genomic DNA, the percentage of DNA in the comet head was selected. Per condition, 50,000 cells of either Siso, HAP-1, or HAP-1.KO.GPx1 were diluted in 1 mL of PBS and subsequently treated with either a 1% DMF aqueous solution as negative control, 20 µM of H2O2 as positive control, or 25 µM of pentathiepin for 15 min on ice to impair intracellular DNA repair mechanisms. Afterwards, 400 µL of the cell suspension was blended with 1.2 mL of a 1% low melting point agarose solution (40 °C) and smoothly distributed on agarose-precoated glass slides. Polymerization was finished after 3 min at RT, and the slides were horizontally submerged in alkaline lysis buffer (1.2 M NaCl, 0.1% N-lauryl-sarcosinate, 0.1 M Na-EDTA, 0.26 M NaOH) before storing them at 4 °C overnight. The slides were then rinsed three times in rinse/electrophoresis buffer (0.002 M Na-EDTA, 0.03 M NaOH) before electrophoretic separation was performed for 25 min at 0.6 V/cm. A neutralization step by adding distilled water was followed by staining the slides with 250 µL of an aqueous 10 µg/mL PI solution for 20 min. For visualization and image capturing, a DMi8 fluorescent microscope and LASX software (Leica Microsystems, Wetzlar, Germany) were used, and the comets scored with the help of CometScore2.0 (rexhoover.com). Per condition and replicate, at least 100 comets were analyzed to calculate a mean level of damage.

Assay [2] concerns HAP-1, HAP-1.KO.GPx1, A2780, and Siso. In words: apoptosis (summary). Particulars: summary grade. Further details: key: no impact (0); weak impact (+); strong impact (++). The procedure:
As reported in our earlier publication, a representative pentathiepin was capable of inducing apoptosis in cancer cell lines. Here, we tested compounds 1–6 for their ability to trigger this particular modality of cell death in a subset of four cell lines: HAP-1, HAP-1.KO.GPx1, A2780, and Siso. A flow cytometric assay was performed, allowing us to discriminate between viable, early, and late apoptotic cells (representative dot plots can be found in Figure S47). FITC-labeled annexin V was used to assess the externalization of phosphatidyl serine as a hallmark of early apoptosis induction. The addition of propidium iodide (PI) enabled the detection of late apoptotic cells as it only permeates porous cell membranes and exerts fluorescence once bound to double-stranded DNA.
The annexin V-FITC/PI assay, which discriminates between viable, early, and late apoptotic cells within a sample population, was performed according to the manufacturer’s instructions (Miltenyi Biotec, Teterow, Germany). Briefly, 125,000 cells were seeded in 2 mL per well of a 6-well plate, allowed to adhere overnight, and subsequently treated with the respective pentathiepin (IC90, see Table S4) diluted in 3 mL of medium. After incubation periods of 6, 24, or 48 h, the cells were harvested, washed with the provided binding buffer, and stained with the annexin V-FITC reagent for 20 min at room temperature (RT) in the dark. After another washing step, the pellet was resuspended, and PI was added immediately before flow cytometric measurement at λEx/Em = 488/525 ± 50 nm for FITC and λEx/Em = 488/655–730 nm for PI with the MACSquant Analyzer 10 (Miltenyi Biotec, Teterow, Germany).

The subject of assay [3] is PARP1 in HAP-1. As to the kind of experiment: Western blot of cleaved PARP1. The note with it: pentathiepins IC90, doxorubicin 0.5 µM, 24 h. The procedure: (§1) In addition to general flow cytometric and microscopic analyses, Western blotting was performed to detect the apoptosis-relevant protein PARP1 (poly(ADP-ribose) polymerase 1) and its cleavage fragment (Figure 17 and Figures S29–S34). Full-length PARP1 (116 kDa) is involved in DNA repair, and a cleavage by caspases (fragment sizes 24 and 89 kDa) caused by caspase-3 and -7 is a hallmark of late apoptosis.
(§2) All detected specific bands were normalized to the total protein load per lane by the TGX stain-free gel system from Bio-Rad.
(§3) All Western blot analyses were performed with reagents, material, and devices purchased from Bio-Rad (Feldkirchen, Germany) if not stated otherwise. To obtain protein lysates, we seeded cells and treated them as described for the other methods. […] Cells were harvested by trypsinization and centrifugation for 5 min at 500× g. After a washing step with PBS, the cell pellet was resuspended in lysis buffer (Tris 50 mM (pH 7.4), 100 mM NaCl, 100 mM NaF, 5 mM EDTA, 0.2 mM Na3VO4, 0.1% Triton-X, and 1% protease inhibitor cocktail added immediately before use). Lysis was supported by incubating the samples for 10 min in an ultrasonic bath before centrifuging for 10 min at 18,000 × g and 4 °C. Protein quantification was performed via the Bradford method using ROTI®nanoquant reagent (Carl Roth GmbH, Karlsruhe, Germany) and bovine serum albumin as calibration standard. For electrophoretic separation, 15–40 µg of protein was loaded per well of a polyacrylamide gel (Mini- or Midi-Protean® TGX stain-free gel, Bio-Rad, Feldkirchen, Germany), and subsequent blotting was performed with Trans-Blot®Turbo™TransferPack Mini or Midi PVDF membranes from Bio-Rad (Feldkirchen, Germany). The membranes were blocked with a 10% non-fat milk powder solution in Tris-buffered saline (TBS; 2.42 g/L Tris, 8.48 g/L NaCl in water) plus 0.5% Tween-20 (TBST) for 1 h at RT. Incubation with primary antibodies took place over night at 4 °C in a 1:1000 dilution in TBST containing BSA (1%). The secondary antibodies conjugated to horse-radish peroxidase were diluted 1:10,000 in TBST and 1% BSA, and incubated for 4 h at RT. A detection step followed, applying Clarity™Western ECL substrate with subsequent imaging via the INTAS Advanced Fluorescence Imager. Between all incubation steps, the blots were washed three times for 10 min with TBST. The bands were quantified with the ImageLab software and normalized using the total protein quantification of the TGX stain-free gel system from Bio-Rad.
For orientation: Immunoblotting shows a protein as a band on a membrane.

The test system of assay [4] is PARP1 in HAP-1.KO.GPx1. In words: Western blot of cleaved PARP1. The note with it: pentathiepins IC90, doxorubicin 0.5 µM, 24 h. The procedure: as §1, §2, §3

The structures appear in SMILES notation.

Turning to `CCOc1c2c(c3ccc(C(=O)N4CCN(C(=O)c5ccc(F)cc5)CC4)cn13)SSSSS2` [Compound 5, (6-Ethoxy-[1,2,3,4,5]pentathiepino[6,7-a]indolizin-9-yl)(4-(4-fluorobenzoyl)piperazinyl)methanone], in assay [1], the Comet formation entry is on record as “++”. Besides, in assay [2], the Apoptosis entry is reported as “++”. Besides, the “cleaved PARP1” value in assay [3] and in assay [4] was “trends for increased levels” in each case.

In the case of `CCOc1c2c(c3ccc(C(=O)N4CCCCC4)cn13)SSSSS2` [Compound 2, (6-Ethoxy-[1,2,3,4,5]pentathiepino[6,7-a]indolizin-9-yl)(piperidinyl)methanone], the Comet formation entry in assay [1] is “+”. Also, the Apoptosis result in assay [2] is reported as “+”.

Consider `CCOc1c2c(c3ccc(C(=O)N4CCOCC4)cn13)SSSSS2` [Compound 3, (6-Ethoxy-[1,2,3,4,5]pentathiepino[6,7-a]indolizin-9-yl)(morpholino)methanone], for which the Comet formation entry in assay [1] is listed as “++”. The Apoptosis result in assay [2] is listed as “++”. The “cleaved PARP1” value in assay [3] and in assay [4] was “trends for increased levels” throughout.

With `CCOc1c2c(c3ccc(C(=O)N(CC)CC)cn13)SSSSS2` [Compound 4, 6-Ethoxy-N,N’-diethyl-[1,2,3,4,5]pentathiepino[6,7-a]indolizine-9-carboxamide], the Comet formation entry in assay [1] was “++”. Besides, in assay [2], the Apoptosis result is listed as “+”.

Take `CCOc1c2c(c3cnc4[nH]c(-c5ccc(OC)cc5)cc4n13)SSSSS2` [Compound 1, 11-Ethoxy-2-(4-methoxyphenyl)-3H-[1,2,3,4,5]pentathiepino[6′,7′:3,4]pyrrolo[1,2-a]pyrrolo[2,3-e]pyrazine]: in assay [1], the Comet formation result is “+”. Besides, in assay [2], the Apoptosis entry is “+”.

As for `CCOc1c2c(c3ccc(C(=O)N4CCN(S(=O)(=O)c5ccc(C)cc5)CC4)cn13)SSSSS2` [Compound 6, (6-Ethoxy-[1,2,3,4,5]pentathiepino[6,7-a]indolizin-9-yl)(4-tosylpiperazinyl)methanone], the Comet formation result in assay [1] is “+”. Besides, the Apoptosis result in assay [2] is given as “+”. In addition, the “cleaved PARP1” value in assay [3] is “relevant and significant quantities of cleaved PARP1”; in assay [4] it was “relevant and significant quantities of cleaved PARP1”.

(Values after publication PMC8305076, “Comprehensive Evaluation of Biological Effects of Pentathiepins on Various Human Cancer Cell Lines and Insights into Their Mode of Action” (International Journal of Molecular Sciences, 2021).)
